Entries after “also recorded” stand apart in the source; their conditions may differ.
Experiments:
[1] = target: T1, human NOX1 (Homo sapiens, UniProt Q9Y5S8); assay: Human NOX1 isolated membranes, Amplex Red/horseradish peroxidase coupled assay; format: biochemical; conditions: membrane-embedded, 40 μM NADPH; for IC50: read-out: IC50 on human NOXs, NOX1 (AMPLEX RED)
T1 construct: expressed in transfected cells; host or cells: HEK293 F cells, transient transfection (pEG BacMam vector); isolated membranes; Cytosolic proteins made in E. coli
T1 sequence (Q9Y5S8 1-564): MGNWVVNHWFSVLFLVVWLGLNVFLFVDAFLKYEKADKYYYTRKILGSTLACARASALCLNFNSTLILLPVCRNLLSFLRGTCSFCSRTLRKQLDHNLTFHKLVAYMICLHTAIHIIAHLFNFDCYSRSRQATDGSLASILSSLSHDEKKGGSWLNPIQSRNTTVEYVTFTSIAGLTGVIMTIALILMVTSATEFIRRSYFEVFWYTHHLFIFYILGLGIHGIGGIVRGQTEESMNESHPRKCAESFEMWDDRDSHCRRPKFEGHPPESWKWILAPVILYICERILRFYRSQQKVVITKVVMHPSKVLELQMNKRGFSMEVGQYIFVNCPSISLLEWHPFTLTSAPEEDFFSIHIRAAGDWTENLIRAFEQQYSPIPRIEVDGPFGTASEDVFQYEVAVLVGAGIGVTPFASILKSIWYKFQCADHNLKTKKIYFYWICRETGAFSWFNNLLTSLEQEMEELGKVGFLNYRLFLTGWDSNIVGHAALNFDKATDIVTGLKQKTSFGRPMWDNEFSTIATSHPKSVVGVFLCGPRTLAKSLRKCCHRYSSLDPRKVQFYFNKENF
T1 sequence (P13498 1-195 partner): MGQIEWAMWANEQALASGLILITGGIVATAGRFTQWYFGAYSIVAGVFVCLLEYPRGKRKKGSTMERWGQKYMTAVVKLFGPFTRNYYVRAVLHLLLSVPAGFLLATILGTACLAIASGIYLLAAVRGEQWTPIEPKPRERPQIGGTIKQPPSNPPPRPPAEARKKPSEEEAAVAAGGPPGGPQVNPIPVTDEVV
Procedure: Activity assays for IC50 determinations were performed as previously described[40],[42] with modifications for covalent inhibitors. […] The estimated final protein concentrations based on the heme’s absorbance (ε414 nm = 131,000 M^–1 cm^–1) were 10–20 nM. Compounds were incubated for 1 h at 25 °C at varying concentrations, and reactions were initiated with 40 μM NADPH. Fluorescence was measured using a ClarioStar plate reader (excitation 572 nm/emission 583 nm).

[2] = target: T2, human MAOA (Homo sapiens, UniProt P21397); assay: Purified MAOA, Amplex Red/horseradish peroxidase coupled assay; format: biochemical; conditions: 70 nM MAOA, 1 mM kynuramine
T2 construct: made in house; host or cells: Pichia pastoris
T2 sequence (P21397 1-527): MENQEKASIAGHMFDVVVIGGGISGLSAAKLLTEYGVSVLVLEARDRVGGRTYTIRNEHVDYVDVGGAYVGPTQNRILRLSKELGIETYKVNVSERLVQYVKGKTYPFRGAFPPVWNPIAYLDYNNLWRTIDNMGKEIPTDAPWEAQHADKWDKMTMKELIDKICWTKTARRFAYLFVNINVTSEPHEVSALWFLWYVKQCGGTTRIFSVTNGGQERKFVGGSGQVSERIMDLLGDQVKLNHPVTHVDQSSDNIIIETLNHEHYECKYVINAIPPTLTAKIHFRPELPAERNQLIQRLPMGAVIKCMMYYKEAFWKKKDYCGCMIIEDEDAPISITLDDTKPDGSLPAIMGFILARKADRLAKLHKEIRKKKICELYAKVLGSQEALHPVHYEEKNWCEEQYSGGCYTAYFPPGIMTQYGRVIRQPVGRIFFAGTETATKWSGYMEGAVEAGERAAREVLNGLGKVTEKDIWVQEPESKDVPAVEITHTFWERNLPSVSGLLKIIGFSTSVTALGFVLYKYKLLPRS
Procedure: (§1) IC50 values on human MAOA and human MAOB were determined using the Amplex Red/horseradish peroxidase coupled assay. […] Measurements were performed using a ClarioStar plate reader (excitation 572 nm and emission 583 nm) (BMG Labtech). IC50 values were obtained by fitting the percentage of inhibition versus log(inhibitor concentration) using GraphPad software 7.0. The covalent modification of the flavin upon the reaction with the propargylamine-containing inhibitors was monitored spectrophotometrically using a diode array UV/visible spectrophotometer (Agilent Technologies). […] The cofactor covalent modification was monitored over time following the shift of the enzyme-bound flavin (peaks at 370 and 456 nm) to 410 nm (ε410 = 23,500 M^–1 cm^–1) (Figure S10).

[3] = target: T3, human MAOB (Homo sapiens, UniProt P27338); assay: Purified MAOB, Amplex Red/horseradish peroxidase coupled assay; format: biochemical; conditions: for IC50 Purified MAOB / IC50: 10 nM MAOB, 1 mM benzylamine
T3 construct: made in house; host or cells: Pichia pastoris
T3 sequence (P27338 1-520): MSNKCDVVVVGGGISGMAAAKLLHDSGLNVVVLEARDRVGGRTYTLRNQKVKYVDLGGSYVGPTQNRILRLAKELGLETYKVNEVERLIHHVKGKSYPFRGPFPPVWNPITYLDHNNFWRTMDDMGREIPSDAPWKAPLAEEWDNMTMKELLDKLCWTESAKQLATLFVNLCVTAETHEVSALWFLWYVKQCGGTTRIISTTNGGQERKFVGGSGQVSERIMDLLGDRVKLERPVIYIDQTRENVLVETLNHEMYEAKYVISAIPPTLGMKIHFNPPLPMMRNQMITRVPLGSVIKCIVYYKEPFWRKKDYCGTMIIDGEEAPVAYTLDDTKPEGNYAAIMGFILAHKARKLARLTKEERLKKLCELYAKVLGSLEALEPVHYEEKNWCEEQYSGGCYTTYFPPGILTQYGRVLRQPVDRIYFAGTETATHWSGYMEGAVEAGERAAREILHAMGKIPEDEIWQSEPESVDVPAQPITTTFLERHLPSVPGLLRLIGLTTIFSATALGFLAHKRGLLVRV
Procedure: as §1

[4] = target: NOX2 (Homo sapiens, UniProt P04839); assay: In cellulo NOX2 activity in NOX2-overexpressing PLB-985 cells, cytochrome c reduction; format: cell-based; parameters: NOX2 was expressed as native protein in X-CGD PLB-985 cells transduced with the RD114 pseudotyped MFGS-NOX2 vector; expressed in transfected cells; host or cells: X-CGD PLB-985 cells transduced with MFGS-NOX2 vector; conditions: for IC50: intact PMA-stimulated cells, cytochrome c 200 μM
Procedure: Measurement of human NOX2 activity in cells was performed by a cytochrome c (200 μM) reduction assay. Superoxide production of intact PLB-985 cells (3 × 10^5 cells) was measured after PMA stimulation (5 μM) as reported.[40],[42] The compounds (0.04–40 μM) were added to the prestimulated cells and incubated for 1 h at 37 °C and 5% CO2, 120 rpm (New Brunswick S41i incubator shaker, Eppendorf). The absorbance at 550 nm was followed at 37 °C over a time course of 20 min in a ClarioStar plate reader (BMG Labtech).

Sequence of NOX2 (P04839 2-570 limits assumed, one chain of several): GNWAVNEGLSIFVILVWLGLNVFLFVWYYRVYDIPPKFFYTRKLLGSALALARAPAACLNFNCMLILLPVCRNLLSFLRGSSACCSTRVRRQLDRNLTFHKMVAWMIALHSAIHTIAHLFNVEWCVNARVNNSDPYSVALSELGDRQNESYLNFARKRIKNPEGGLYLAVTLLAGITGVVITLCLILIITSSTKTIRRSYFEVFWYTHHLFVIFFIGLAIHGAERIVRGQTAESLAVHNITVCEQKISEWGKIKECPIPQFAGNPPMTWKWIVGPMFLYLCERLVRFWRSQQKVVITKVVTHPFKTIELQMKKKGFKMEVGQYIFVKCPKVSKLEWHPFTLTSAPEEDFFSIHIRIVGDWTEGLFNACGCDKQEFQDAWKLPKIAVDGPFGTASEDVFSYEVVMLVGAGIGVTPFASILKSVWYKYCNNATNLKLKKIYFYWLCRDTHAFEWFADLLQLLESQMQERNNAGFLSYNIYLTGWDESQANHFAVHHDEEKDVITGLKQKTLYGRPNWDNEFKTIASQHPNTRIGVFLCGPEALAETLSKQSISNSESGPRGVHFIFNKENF
Sequence of NOX2 (P19878 whole entry partner, one chain of several): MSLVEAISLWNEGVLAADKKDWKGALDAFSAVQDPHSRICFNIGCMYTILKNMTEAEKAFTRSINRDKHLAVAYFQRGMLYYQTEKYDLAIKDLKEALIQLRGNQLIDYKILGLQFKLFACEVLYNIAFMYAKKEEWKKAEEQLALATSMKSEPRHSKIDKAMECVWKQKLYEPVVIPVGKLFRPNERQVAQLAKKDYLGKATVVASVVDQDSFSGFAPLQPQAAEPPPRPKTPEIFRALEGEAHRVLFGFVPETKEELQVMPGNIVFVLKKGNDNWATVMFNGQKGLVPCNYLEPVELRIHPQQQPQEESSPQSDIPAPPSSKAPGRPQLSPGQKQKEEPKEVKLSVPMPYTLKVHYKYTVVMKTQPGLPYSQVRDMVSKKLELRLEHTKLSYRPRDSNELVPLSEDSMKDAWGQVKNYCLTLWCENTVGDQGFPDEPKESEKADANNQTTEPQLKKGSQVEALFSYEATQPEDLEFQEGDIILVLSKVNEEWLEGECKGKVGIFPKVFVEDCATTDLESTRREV
Sequence of NOX2 (P14598 whole entry partner, one chain of several): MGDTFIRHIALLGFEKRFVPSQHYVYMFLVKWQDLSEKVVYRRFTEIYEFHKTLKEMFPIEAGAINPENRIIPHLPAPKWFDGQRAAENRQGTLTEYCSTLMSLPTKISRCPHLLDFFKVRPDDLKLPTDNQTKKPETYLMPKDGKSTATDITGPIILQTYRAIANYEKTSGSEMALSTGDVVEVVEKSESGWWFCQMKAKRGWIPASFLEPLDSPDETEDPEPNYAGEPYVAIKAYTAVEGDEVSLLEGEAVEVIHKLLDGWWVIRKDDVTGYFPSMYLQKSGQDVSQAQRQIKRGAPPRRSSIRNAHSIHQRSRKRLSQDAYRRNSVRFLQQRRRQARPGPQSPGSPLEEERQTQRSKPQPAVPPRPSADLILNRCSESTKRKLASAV

| IC50 on human NOXs, NOX1 (AMPLEX RED) [1] | IC50 [1] | IC50 [2] | IC50 Purified MAOB [3] | IC50 [4] | MAOB inhibition relative to rasagiline (weaker) [3] | IC50 [3] | potency against NOX2 in cellulo relative to VAS2870 (more potent) ([4]; PLB-985 cells) | IC50 Purified MAOA [2] | Compound |
| --- | --- | --- | --- | --- | --- | --- | --- | --- | --- |
| inactive | > 100 µM | 41.6 ± 3.7 µM | Inhibition^b | 17.6 ± 3.4 µM | – | – | – | – | C#CCNC(=O)c1ccc(Cn2nnc3c(Sc4nc5ccccc5o4)ncnc32)cc1 [Compound 8b, (4-((7-Benzo[d]oxazol-2-yl-thio)-3H-[1,2,3]triazole[4,5-d]pyrimidin-3-yl)methyl)-N-(prop-2-in-1-yl)benzamide] |
| – | 22 ± 6.7 µM | 59 ± 5.9 µM | – | 0.135 ± 0.02 µM | 10 fold | 0.182 ± 0.1 µM | 2 fold | – | C#CCN(C)Cc1ccc(Cn2nnc3c(Sc4nc5ccccc5o4)ncnc32)cc1 [Compound 9a, N-(4-((7-(Benzo[d]oxazol-2-ylthio)-3H-[1,2,3]triazolo[4,5-d]pyrimidin-3-yl)methyl)benzyl)-N-methylprop-2-yn-1-amine] |
| – | 32.9 ± 2.9 µM | > 100 µM | ineffective; also recorded: Not detected | 2.81 ± 0.88 µM | – | > 100 µM | – | ineffective; also recorded: Not detected | CCCNC(=O)c1ccc(Cn2nnc3c(Sc4nc5ccccc5o4)ncnc32)cc1 [Compound 8a, (4-((7-Benzo[d]oxazol-2-yl-thio)-3H-[1,2,3]triazole[4,5-d]pyrimidin-3-yl)methyl)-N-(propyl)benzamide] |
